Results taken from patent publication US20240225973A1, “COSMETIC COMPOSITION FOR IMPROVING SENSITIVE SKIN” (LG HOUSEHOLD & HEALTH CARE LTD., priority 2023, published 2024).

Test system: beta-defensin 2 (human β-defensin 2, hBD-2)
Assay: beta-defensin 2 synthesis ELISA in cortisol-treated HaCaT cells
Assay type: cell-based
Parameters: change of beta-defensin 2 in skin cells: dose or concentration left out as unconfirmed
Details: for enhancement efficacy (beta-defensin 2 synthesis): single treatment at 1 ppm
Procedure: First, HaCaT, which is a human epidermal cell of the outermost layer among skin cells, was cultured using Dulbecco's Modified Eagle's Media (DMEM; Gibco, USA) mixed with 10% fetal bovine serum (FBS; Gibco, USA) and 1% antibiotic antimycotic (Gibco, USA) in a 24-well plate under conditions of 37° C. and 5% CO2. […] […] After 24 hours, the cells were treated with curcumin, taurine, and acetyl hexapeptide-8 at experimental concentrations, and cultured for 24 hours. At this time, curcumin, taurine, and acetyl hexapeptide-8 were treated alone, and the concentration of curcumin was fixed at 0.1 ppm and 1 ppm, and then taurine and acetyl hexapeptide-8 were treated in combination of concentrations, and cultured for 24 hours. 24 hours after treatment with each sample, ELISA was performed to quantify the amount of beta-defensin 2 (human β-defensin 2, hBD-2) protein synthesis. ELISA was performed using the HUMAN BETA DEFENSIN 2 ELISA kit (ALPHA DIAGNOSTIC, USA) and using the cell culture medium according to the kit's manual, and the final protein amount was calculated by measuring absorbance at 400 nm. […] At this time, when the amount thereof increased compared to the decrease due to cortisol, it was interpreted that the synthesis of beta-defensin 2 was increased by the sample. In addition, the synergistic effect between respective active substances that enhance beta-defensin 2 which had been reduced by cortisol was predicted through the Colby formula, and when the actual measured value was greater than the predicted value, it was determined that there was the synergistic effect.

[1] = Table 4: each substance at 1 ppm, alone or three cotreated, Cortisol (5 μM) = 100
[2] = single treatment 0.01 ppm, 24 h, HaCaT, cortisol group = 100
[3] = single treatment 0.1 ppm, 24 h, HaCaT, cortisol group = 100
[4] = single treatment 1 ppm, 24 h, HaCaT, cortisol group = 100

| SMILES | Production amount of beta-defensin 2 (%) [1] [%] | Production amount of beta-defensin 2 (%) [2] [%] | Production amount of beta-defensin 2 (%) [3] [%] | Production amount of beta-defensin 2 (%) [4] [%] | enhancement efficacy (beta-defensin 2 synthesis) | Production amount of beta-defensin 2 (%) (single treatment 5 ppm, 24 h, HaCaT, cortisol group = 100) | Production amount of beta-defensin 2 (%) (single treatment 10 ppm, 24 h, HaCaT, cortisol group = 100) | change of beta-defensin 2 in skin cells (HaCaT, cultured for 24 hours) |
| --- | --- | --- | --- | --- | --- | --- | --- | --- |
| COc1cc(/C=C/C(=O)CC(=O)/C=C/c2ccc(O)c(OC)c2)ccc1O [Curcumin, curcumin] | 106.82 | 96.65 | 97.92 | 106.82 | confirmed | – | – | – |
| NCCS(=O)(=O)O [Taurine, 2-aminoethanesulfonic acid] | 117.6 | 100.60 | 99.90 | 117.60 | confirmed | 87.61 | 83.06 | – |
| C[C@]12CCC(=O)C=C1CC[C@@H]1[C@@H]2[C@@H](O)C[C@@]2(C)[C@H]1CC[C@]2(O)C(=O)CO [cortisol, hydrocortisone, reference compound] | – | – | – | – | – | – | – | significantly reduced |
